Source: patent US10597388B2, “Pyridazinone herbicides” (FMC CORPORATION, priority 2014, dated 2020)

Key:
Type in all cases: in vivo
[1] = test system: barnyardgrass (Echinochloa crus-galli); test: Test A greenhouse herbicide test, pre- and postemergence
From the text: (§1) Seeds of plant species selected from barnyardgrass (Echinochloa crus-galli), kochia (Kochia scoparia), ragweed (common ragweed, Ambrosia elatior), ryegrass, Italian (Italian ryegrass, Lolium multiflorum), crabgrass, large (large crabgrass, Digitaria sanguinalis), foxtail, giant (giant foxtail, Setaria faberii), momingglory (Ipomoea spp.), pigweed (Amaranthus retroflexus), velvetleaf (Abutilon theophrasti), wheat (Triticum aestivum), and corn (Zea mays) were planted into a blend of loam soil and sand and treated preemergence with a directed soil spray using test chemicals formulated in a non-phytotoxic solvent mixture which included a surfactant.
(§2) At the same time, plants selected from these crop and weed species and also blackgrass (Alopecurus myosuroides), and galium (catchweed bedstraw, Galium aparine) were planted in pots containing the same blend of loam soil and sand and treated with postemergence applications of test chemicals formulated in the same manner. Plants ranged in height from 2 to 10 cm and were in the one- to two-leaf stage for the postemergence treatment. Treated plants and untreated controls were maintained in a greenhouse for approximately 10 d, after which time all treated plants were compared to untreated controls and visually evaluated for injury. Plant response ratings, summarized in Table A, are based on a 0 to 100 scale where 0 is no effect and 100 is complete control. A dash (-) response means no test result.

corn (Zea mays) = test: as above; conditions: Postemergence; for Corn plant response rating: 0 to 100 scale, 0 is no effect, 100 is complete control
From the text: as §1, §2

[2] = test system: foxtail, giant (giant foxtail, Setaria faberii); test: as above
From the text: as §1, §2

kochia (Kochia scoparia) = test: as above
From the text: as §1, §2

[3] = test system: pigweed (Amaranthus retroflexus); test: as above
From the text: as §1, §2

[4] = test system: ragweed (common ragweed, Ambrosia elatior); test: as above
From the text: as §1, §2

[5] = test system: ryegrass, Italian (Italian ryegrass, Lolium multiflorum); test: as above
From the text: as §1, §2

[6] = test system: wheat (Triticum aestivum); test: as above; conditions: Postemergence; for Wheat plant response rating: 0 to 100 scale, 0 is no effect, 100 is complete control
From the text: as §1, §2

[7] = test system: blackgrass (Alopecurus myosuroides); test: Test A greenhouse herbicide test, postemergence; conditions: for Blackgrass plant response rating: 0 to 100 scale, 0 is no effect, 100 is complete control
How it was run: (§3)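 Scores are visual injury ratings from 0 (no effect) to 100 (complete control) versus untreated plants, taken roughly 10 d after treatment in the greenhouse. Treatment was postemergence, on one- to two-leaf plants 2–10 cm high growing in a loam soil/sand mix.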

[8] = test system: galium (catchweed bedstraw, Galium aparine); test: Test A greenhouse herbicide test, postemergence; conditions: for Galium plant response rating: 0 to 100 scale, 0 is no effect, 100 is complete control
How it was run: as §3

[9] = Postemergence, 125 g ai/ha, 0 to 100 scale where 0 is no effect and 100 is complete control
[10] = Postemergence, 500 g ai/ha, 0 to 100 scale, 0 is no effect, 100 is complete control
[11] = Preemergence, 125 g ai/ha, 0 to 100 scale where 0 is no effect and 100 is complete control
[12] = 125 g ai/ha, 0 to 100 scale where 0 is no effect and 100 is complete control
[13] = Preemergence, 500 g ai/ha, 0 to 100 scale where 0 is no effect and 100 is complete control
[14] = Postemergence, 500 g ai/ha, visual rating after approx. 10 d, 0 to 100 scale (0 no effect, 100 complete control)
[15] = 500 g ai/ha, visual rating after approx. 10 d, 0 to 100 scale (0 no effect, 100 complete control)

Row | Compound | Plant response rating, Barnyardgrass [1, 9] | Barnyardgrass plant response rating [1, 11] | Plant response rating, Corn (corn (Zea mays); [12]) | Plant response rating, Foxtail, Giant [2, 9] | Foxtail, Giant plant response rating [2, 11] | Plant response rating, Foxtail, Giant [2, 13] | Plant response rating, Kochia (kochia (Kochia scoparia); [9]) | Kochia plant response rating (kochia (Kochia scoparia); [11]) | Plant response rating, Kochia (kochia (Kochia scoparia); [13]) | Plant response rating, Pigweed [3, 9] | Pigweed plant response rating [3, 11] | Plant response rating, Pigweed [3, 13] | Plant response rating, Ragweed [4, 9] | Plant response rating, Ragweed [4, 13] | Plant response rating, Ryegrass, Italian [5, 9] | Plant response rating, Ryegrass, Italian [5, 13] | Plant response rating, Wheat [6, 12] | Plant response rating, Blackgrass [7, 12] | Plant response rating, Galium [8, 12] | Plant response rating, Barnyardgrass [1, 13] | other results
1 | CCc1nn(C)c(=O)c(-c2c(C)oc3ccc(Cl)cc23)c1O [Compound 77] | 0 | 0 | 0 | 0 | 0 | 10 | 0 | 0 | 0 | 0 | 0 | 0 | 0 | 0 | 20 | 40 | 0 | 0 | 20 | – | Barnyardgrass plant response rating [1, 10]: 0; Plant response rating, Barnyardgrass ([1]; Preemergence, 500 g ai/ha, 0 to 100 scale, 0 no effect, 100 complete control): 10; Corn plant response rating (corn (Zea mays); 500 g ai/ha): 0; Foxtail, Giant plant response rating [2, 10]: 0; Kochia plant response rating (kochia (Kochia scoparia); [10]): 10; Pigweed plant response rating [3, 10]: 0; Ragweed plant response rating [4, 10]: 0; Ragweed plant response rating [4, 11]: 0; Ryegrass, Italian plant response rating [5, 10]: 60; Ryegrass, Italian plant response rating [5, 11]: 10; Wheat plant response rating ([6]; 500 g ai/ha): 0; Blackgrass plant response rating ([7]; 500 g ai/ha): 0; Galium plant response rating ([8]; 500 g ai/ha): 60
2 | Cc1nn(C)c(=O)c(-c2c(Cl)n(C)c3ccccc23)c1O [Compound 95] | 0 | 0 | 0 | 0 | 0 | 0 | 0 | 0 | 10 | 0 | 0 | 20 | 0 | 20 | 10 | 60 | 0 | 0 | 20 | 0 | Barnyardgrass plant response rating [1, 10]: 10; Corn plant response rating (corn (Zea mays); 500 g ai/ha): 0; Foxtail, Giant plant response rating [2, 10]: 0; Kochia plant response rating (kochia (Kochia scoparia); [10]): 10; Pigweed plant response rating [3, 10]: 0; Ragweed plant response rating [4, 10]: 10; Ragweed plant response rating [4, 11]: 0; Ryegrass, Italian plant response rating [5, 10]: 50; Ryegrass, Italian plant response rating [5, 11]: 10; Wheat plant response rating ([6]; 500 g ai/ha): 0; Blackgrass plant response rating ([7]; 500 g ai/ha): 10; Galium plant response rating ([8]; 500 g ai/ha): 60
3 | CC(=O)Oc1cnn(C)c(=O)c1-c1c(C)sc2ccccc12 [Compound 120] | 0 | 0 | 0 | 0 | 0 | 20 | 0 | 0 | 0 | 20 | 0 | 70 | 0 | 30 | 20 | 30 | 0 | 0 | 40 | 30 | Plant response rating, Barnyardgrass [1, 14]: 10; Plant response rating, Corn (corn (Zea mays); [15]): 0; Plant response rating, Foxtail, Giant [2, 14]: 10; Plant response rating, Kochia (kochia (Kochia scoparia); [14]): 30; Plant response rating, Pigweed [3, 14]: 50; Plant response rating, Ragweed [4, 14]: 10; Ragweed plant response rating [4, 11]: 0; Plant response rating, Ryegrass, Italian [5, 14]: 80; Ryegrass, Italian plant response rating [5, 11]: 30; Plant response rating, Wheat [6, 15]: 0; Plant response rating, Blackgrass [7, 15]: 10; Plant response rating, Galium [8, 15]: 70
4 | Cc1sc2ccc(C(F)(F)F)cc2c1-c1c(O)c(Cl)nn(C)c1=O [Compound 140] | 50 | 50 | 20 | 40 | 50 | 80 | 30 | 0 | 30 | 70 | 50 | 100 | 90 | 90 | 70 | 90 | 20 | 30 | 70 | 70 | Plant response rating, Barnyardgrass [1, 14]: 90; Plant response rating, Corn (corn (Zea mays); [15]): 30; Plant response rating, Foxtail, Giant [2, 14]: 90; Plant response rating, Kochia (kochia (Kochia scoparia); [14]): 70; Plant response rating, Pigweed [3, 14]: 90; Plant response rating, Ragweed [4, 14]: 100; Plant response rating, Ryegrass, Italian [5, 14]: 100; Plant response rating, Wheat [6, 15]: 70; Plant response rating, Blackgrass [7, 15]: 50; Plant response rating, Galium [8, 15]: 90
5 | Cc1ccc2ccccc2c1-c1c(OS(C)(=O)=O)cnn(C)c1=O [Compound 142] | 10 | 10 | 0 | 10 | 10 | 60 | 0 | 0 | 0 | 20 | 60 | 50 | 0 | 40 | 80 | 80 | 0 | 10 | 70 | 70 | Plant response rating, Barnyardgrass [1, 14]: 20; Plant response rating, Corn (corn (Zea mays); [15]): 0; Plant response rating, Foxtail, Giant [2, 14]: 20; Plant response rating, Kochia (kochia (Kochia scoparia); [14]): 20; Plant response rating, Pigweed [3, 14]: 50; Plant response rating, Ragweed [4, 14]: 20; Plant response rating, Ryegrass, Italian [5, 14]: 90; Plant response rating, Wheat [6, 15]: 0; Plant response rating, Blackgrass [7, 15]: 20; Plant response rating, Galium [8, 15]: 80
